Where “and” joins values, the source holds several entries; their conditions need not be identical. Equal values may be shown once.
How the values were obtained:
CD3, CD4, CD8 = assay: Second clinical study of HIV+ patients: CD3, CD4, CD8; type: in vivo, human; design: CD4 / CD8 / CD3: unit not given here; settings: for CD4 / CD3 / CD8: one value per patient
Method: Nine of the patients in Example III were given a second treatment of TPA. Of these nine, seven were asymptomatic at the beginning of the second trial. A tenth patient (patient #2a) who was symptomatic and had not previously been treated with TPA was added to the study. Each patient was administered a weight adjusted dosage of TPA (75 μg/sq m) in 200 ml of sterile saline intravenously over one hour. This dosage was given to each patient once a day for ten consecutive days followed by a rest period of ten days for three cycles and a total of 30 doses of TPA. Patients 5a, 6a, and 8a stopped taking anti-AIDS drugs one month prior to beginning the TPA treatment and beginning again one month after the third cycle. Patients 1-4-a, 7a, and 9a-10a continued taking anti-AIDS drugs throughout the treatment.
Blood samples were taken three days prior to starting treatment, after completing the first 10 day cycle of TPA infusion and again after the last TPA infusion and CD3, CD4, CD8, WBC, RBC, HGB and platelets were measured.

[1] = tested on: HIV-cytopathic effects on MT-4 cells; settings: cited from earlier work
[2] = tested on: CD3, CD4 and CD8 in peripheral blood; assay: First clinical study of HIV+ patients: CD3, CD4, CD8 levels by flow cytometry; type: in vivo, human; design: CD4 / CD8 / CD3: unit not given here; settings: for CD3 / CD4 / CD8: one value per patient
Method: Twelve symptomatic patients (five males and seven females) between the ages of 35 to 52 all of whom were infected with HIV in 1995 through blood transfusion and were refractory to standard treatments for HIV were treated with TPA. Each patient was administered a weight adjusted dosage of TPA (75 μg/sq m) in 200 ml of sterile saline by i.v. over one hour. This dose was administered once daily for the first three days of treatment. Each patient was then given this dose every other day for days 4 to 18 followed by a six month rest period prior to a second course of treatment according to the same protocol.
[…] Levels of CD3, CD4 and CD8 in peripheral blood were measured using monoclonal antibodies (Becton Dickson Scientific Co., Franklin Lakes, N.J.) and a flow cytometer (B.D. Bioscience, San Diego, Calif.).

primary AML cells = assay: Primary AML cultures ex vivo: cell viability, apoptosis assays and Western analysis of ERK; type: cell-based, human
Source text: In addition to protein kinase C and ERK activation, TPA is a known inducer of NF-κB, a pro-survival transcription factor often constitutively active in AML blasts and leukemic stem cells.

[3] = tested on: pancreatic cancer, non-small-cell lung cancer, nasopharyngeal carcinoma; assay: TPA as an adjuvant to traditional neoplasm treatments (patient cases); type: in vivo, human
Method: Patient three was diagnosed with terminal metastasized pancreatic cancer. They received five injections of 0.18 mg TPA (0.125 mg/m^2) per week for 12 weeks in addition to chemotherapy.
Patient nine was diagnosed with non-small-cell lung cancer. The cancer had metastasized and was refractory to Tarceva® (erlotinib) and Iressa™ (gefitinib). The patient was treated with a combination of gemcitabine and cisplatin according to standard protocols accompanied by an injection of 0.19 mg of TPA (0.125 mg/m^2) each weekday for eight weeks. […] They have been in remission since Jun. 30, 2010.
Patient thirteen was diagnosed with terminal nasopharyngeal carcinoma and treated with both chemotherapy and radiotherapy. They received injections of 0.19 mg of TPA (0.125 mg/m^2) of TPA a day for five days prior to beginning radiotherapy and then 0.19 mg of TPA (0.125 mg/m^2) every other day for a total of 20 injections.

[4] = Anti-aging properties of TPA (patient case); type: in vivo, human; settings: 1.25 ampoules of 0.125 mg/m^2 every other day for two months
Method: Patient eight, person, was being treated for prostate hypertrophy with 1.25 ampoules of 0.125 mg/m^2 every other day for two months.

[5] = Treatment of myasthenia gravis (patient case); type: in vivo, human; settings: 35 injections of TPA, concurrent dexamethasone
Method: Patient eleven, suffered from myasthenia gravis for more than 40 years. They were taking dexamethasone and concurrently and was injected with 1 ampoule containing 0.19 mg of TPA (0.125 mg/m^2) every other day for four weeks, then 0.24 mg of TPA (1.25×0.125 mg/m^2) every other day for 2 weeks, and 0.26 mg of TPA (1.5×0.125 mg/m^2) every other day for an additional 3 weeks for a total of 35 injections of TPA. They no longer need the dexamethasone and is now asymptomatic.

metastatic liver cancer = assay: Treatment of liver cancer (patient case); type: in vivo, human; settings: three injections of 0.19 mg TPA; before 50,000+
Source text: Patient X, age ? was diagnosed with metastatic liver cancer. Their initial alpha fetoprotein level was 48,813. They were given chemotherapy and radiation treatments but their alpha fetoprotein level remained elevated at 50,000+.

[6] = Treatment of prostate hypertrophy (patient case); type: in vivo, human
Method: Patient eight, diagnosed with prostate hypertrophy. They were injected with 1 ampoule containing 0.19 mg of TPA (0.125 mg/m^2) every other day for four weeks, then 0.24 mg of TPA (1.25×0.125 mg/m^2) every other day for 2 weeks, and 0.26 mg of TPA (1.5×0.125 mg/m^2) every other day for an additional 3 weeks. Their PSA index is now below 3.0.

[7] = Treatment of Parkinson's disease (patient case); type: in vivo, human; settings: 0.19, 0.24, 0.26 mg TPA every other day over 9 weeks
Method: Patient two was diagnosed with Parkinson's disease. They were injected with 1 ampoule containing 0.19 mg of TPA (0.125 mg/m^2) TPA every other day for four weeks, then 0.24 mg of TPA (1.25×0.125 mg/m^2) every other day for 2 weeks, and 0.26 mg of TPA (1.5×0.125 mg/m^2) every other day for an additional 3 weeks.

[8] = After first 10-day TPA infusion cycle
[9] = After third 10-day TPA infusion cycle
[10] = Four days after TPA, 75 μg/sq m i.v.

CCCCCCCCCCCCCC(=O)O[C@@H]1[C@@H](C)[C@@]2(O)[C@@H](C=C(CO)C[C@]3(O)C(=O)C(C)=C[C@@H]23)[C@@H]2C(C)(C)[C@]12OC(C)=O [TPA, 12-O-tetradecanoylphorbol-13-acetate]
CD4 (CD3, CD4, CD8; After first 10-day TPA infusion cycle, 75 μg/sq m i.v. daily): 76 and 460 and 189 and 91 and 285 and 729 and 519 and 136 and 74 and 7
CD3 (CD3, CD4, CD8; [8]): 476 and 1200 and 823 and 1598 and 758 and 3148 and 1143 and 712 and 333 and 1323
CD8 (CD3, CD4, CD8; [8]): 335 and 729 and 584 and 1507 and 429 and >2000 and 547 and 574 and 261 and 907
CD3 (CD3, CD4, CD8; [9]): 625 and 2033 and 1193 and 1257 and 938 and 3347 and 1295 and 1317 and 308 and 2037
CD4 (CD3, CD4, CD8; [9]): 137 and 1002 and 205 and 94 and 276 and 786 and 495 and 100 and 63 and 19
CD8 (CD3, CD4, CD8; [9]): 543 and 980 and 916 and 1127 and 466 and >2000 and 733 and 1221 and 208 and 1129
CD3 (summary of Table 3) (CD3, CD4, CD8; after the first and third infusion with TPA): increase in CD3 in all patients
HIV-cytopathic effects [1]: inhibit the HIV-cytopathic effects on MT-4 cells
CD3 ([2]; After TPA (patients 09-12)): 2920 and 1077 and 874 and 362
CD4 ([2]; After TPA (patients 09-12)): 663 and 445 and 131 and 78
CD8 ([2]; After TPA (patients 09-12)): <2000 and 591 and 724 and 268
CD3 ([2]; Forty two days after TPA): 799 and 424 and 581 and 1643 and 537 and 146 and 858 and 203
CD4 ([2]; Forty two days after TPA): 54 and 33 and 44 and 191 and 49 and 1 and 241 and 2
CD8 ([2]; Forty two days after TPA): 700 and 374 and 493 and 1429 and 429 and 139 and 527 and 111
CD3 [2, 10]: 427 and 941 and 1282 and 808 and 598 and 739 and 299 and 2616
CD4 [2, 10]: 36 and 123 and 119 and 179 and 7 and 318 and 3 and 105
CD8 [2, 10]: 366 and 770 and 1330 and 570 (2×) and 355 and 180 and <2000
change in CD3, CD4, or CD8 levels (summary of Table 1) ([2]; twelve patients): no consistent change or correlation was observed
cytotoxic effect (cell viability and apoptosis assays) (primary AML cells; AML cases): direct therapeutic cytotoxic effects in at least a subset of AML cases
phospho-ERK pro-survival signal (primary AML cells; after 24 hour ex vivo exposure): loss of the phospho-ERK pro-survival signal
ERK phosphorylation (Western analysis) (primary AML cells; all primary cultures analyzed, by 1 hour in culture): strongly induced ERK phosphorylation
tumor in the pancreas ([3]; five injections of 0.18 mg TPA per week for 12 weeks in addition to chemotherapy, from 6.3 cm): 2.4 cm
skin damage from radiation treatment ([3]; nasopharyngeal carcinoma patient): did not suffer any apparent skin damage
remission ([3]; nasopharyngeal carcinoma patient, chemotherapy and radiotherapy plus 20 injections of 0.19 mg TPA): in remission for two and a half years
side effects of chemotherapy ([3]; non-small-cell lung cancer patient, gemcitabine and cisplatin plus 0.19 mg TPA each weekday for eight weeks): did not lose any hair and had significantly less nausea
remission ([3]; non-small-cell lung cancer patient, gemcitabine and cisplatin plus TPA): in remission since Jun. 30, 2010
side effects of chemotherapy ([3]; pancreatic cancer patient, TPA in addition to chemotherapy): significantly less vomiting and nausea than in prior chemotherapy treatments without TPA
skin [4]: their skin became softer and had fewer wrinkles
myasthenia gravis symptoms [5]: asymptomatic
alpha fetoprotein levels (metastatic liver cancer): returned to normal levels within four months
PSA index ([6]; 0.19, 0.24, 0.26 mg TPA every other day over 9 weeks): below 3.0
appearance ([6]; same patient): developed a more youthful appearance
tremors [7]: no longer displaying tremors
